One may read the pIC50 as the negative decadic logarithm of the IC50, by convention in mol/L.

Consider 35 molecules from patent publication US10632125B2, “MTH1 inhibitors for treatment of inflammatory and autoimmune conditions” (THOMAS HELLEDAYS STIFTELSE FÖR MEDICINSK FORSKNING, priority 2014, dated 2020).

pIC50: −log10 of the molar value. A value given as a limit tells only on which side of the number the result lay.

This experiment has as its target MTH1 (Homo sapiens, UniProt P36639). As to the kind of experiment: MTH1 enzymatic assay (malachite green, coupled to pyrophosphatase). The format is biochemical. The conditions noted are these: dGTP 100 μM, MTH1 6 nM; 96- or 384-well format; read-out: IC50. The protocol: MTH1 catalyzes the hydrolysis of dGTP to dGMP and PPi. By coupling the reaction to pyrophosphatase added in excess PPi is converted to Pi that can be detected by using the malachite green assay reagent. […] 96-well method: Briefly, the compound to be analyzed is diluted in DMSO in a 1:3 dilution series generating 12 different compound concentrations giving a final DMSO concentration of 1% in the assay well. MTH1 diluted in assay buffer (100 mM Tris-acetate, 40 mM NaCl, 10 mM magnesium acetate, 1 mM DTT and 0.005% Tween 20) fortified with E. coli pyrophosphatase (0.2 U/ml) is added to a final concentration of 6 nM. dGTP diluted in assay buffer is added to a final concentration of 100 μM. The reaction mixture is incubated for 15 minutes at 22° C. To 100 μl reaction mixture, 25 μl Malachite green assay regent (0.095% Malachite green in 17% H2SO4, 1.5% Ammonium molybdate, 0.17% Tween 20) is added, followed by incubation with shaking for 15 minutes at 22° C. The absorbance of the assay plate is read at 630 nm using a Hidex Sense Multilabel plate reader. The IC50 value is determined by fitting a dose response curve to the data points using nonlinear regression analysis and the equation Y=Bottom+(Top-Bottom)/(1+10^((Log IC50−X)*HillSlope)), where Y is the read absorbance at 630 nm and X is log [compound].
384-Well Method: The compounds to be tested are nano-dispensed, in 11 concentrations, directly in assay plates, with a final DMSO concentration <1%. The protocol and the reaction mixture are the same as for the 96-well assay, with a total reaction volume of 50 μl/well to which 10 μl of Malachite green reagent is added. All additions to the assay plates are made with multidrop.
Take `CNc1cc(-c2ccccc2C)nc(N)n1` [Example 143, 4-N-methyl-6-(2-methylphenyl)pyrimidine-2,4-diamine]: the pIC50 is above 6.70.

`CNc1cc(-c2ccc3[nH]ncc3c2C)nc(N)n1` [Example 145, 4-N-methyl-6-(4-methyl-1H-indazol-5-yl)pyrimidine-2,4-diamine]: the pIC50 was above 6.70.

Regarding `CNc1cc(-c2cccc(C)c2)nc(N)n1` [Example 147, 4-N-methyl-6-(3-methylphenyl)pyrimidine-2,4-diamine], the pIC50 was above 6.70.

For the molecule `Cc1ccc(S(=O)(=O)n2cc(-c3cc(NC4CCC4)nc(N)n3)c3ccccc32)cc1` [Example 152, 4-N-cyclobutyl-6-[1-(4-methylbenzenesulfonyl)-1H-indol-3-yl]pyrimidine-2,4-diamine], the pIC50 is above 6.70.

With `Cc1cccc(-c2cc(NC3CCCC3)nc(N)n2)c1C` [Example 153, 4-N-cyclopentyl-6-(2,3-dimethylphenyl)pyrimidine-2,4-diamine], the pIC50 was above 6.70.

With `CNc1cc(-c2cn(S(=O)(=O)c3ccc(C(F)(F)F)cc3)c3ccccc23)nc(N)n1` [Example 155, 4-N-methyl-6-{1-[4-(trifluoromethyl)benzenesulfonyl]-1H-indol-3-yl}pyrimidine-2,4-diamine], the pIC50 was above 6.70.

Regarding `Cc1cccc(-c2cc(NC3CCCCC3)nc(N)n2)c1C` [Example 156, 4-N-cyclohexyl-6-(2,3-dimethylphenyl)pyrimidine-2,4-diamine], the pIC50 was above 6.70.

As to `CCNc1cc(-c2cccc(C)c2C)nc(N)n1` [Example 158, 6-(2,3-dimethylphenyl)-4-N-ethylpyrimidine-2,4-diamine], the negative logarithm of the IC50 (pIC50) was above 6.70.

On to `Cc1ccc(S(=O)(=O)n2cc(-c3cc(NC(C)C)nc(N)n3)c3ccccc32)cc1` [Example 163, 6-[1-(4-methylbenzenesulfonyl)-1H-indol-3-yl]-4-N-(propan-2-yl)pyrimidine-2,4-diamine], for which the pIC50 is above 6.70.

With `CNc1cc(-c2coc3ccccc23)nc(N)n1` [Example 170, 6-(1-benzofuran-3-yl)-4-N-methylpyrimidine-2,4-diamine], the pIC50 was above 6.70.

For `CNc1cc(-c2csc3ccccc23)nc(N)n1` [Example 172, 6-(1-benzothiophen-3-yl)-4-N-methylpyrimidine-2,4-diamine], the pIC50 is above 6.70.

With `CC(C)Nc1cc(-c2cccc(Cl)c2Cl)nc(N)n1` [Example 176, 6-(2,3-dichlorophenyl)-4-N-(propan-2-yl)pyrimidine-2,4-diamine], the pIC50 was above 6.70.

On to `Nc1nc(NCC2CC2)cc(-c2cccc(Cl)c2Cl)n1` [Example 177, 4-N-(cyclopropylmethyl)-6-(2,3-dichlorophenyl)pyrimidine-2,4-diamine], for which the pIC50 is above 6.70.

Turning to `CNc1cc(-c2cc(Br)ccc2OC)nc(N)n1` [Example 183, 6-(5-bromo-2-methoxyphenyl)-4-N-methylpyrimidine-2,4-diamine], the negative logarithm of the IC50 (pIC50) is above 6.70.

`CNc1cc(-c2cc(C)ccc2C)nc(N)n1` [Example 184, 6-(2,5-dimethylphenyl)-4-N-methylpyrimidine-2,4-diamine]: the pIC50 was above 6.70.

On to `CNc1cc(-c2cccnc2C(F)(F)F)nc(N)n1` [Example 185, 4-N-methyl-6-[2-(trifluoromethyl)pyridin-3-yl]pyrimidine-2,4-diamine], for which the pIC50 is above 6.70.

On to `CNc1cc(-c2ccc(OCc3ccccc3)cc2C)nc(N)n1` [Example 187, 6-[4-(benzyloxy)-2-methylphenyl]-4-N-methylpyrimidine-2,4-diamine], for which the pIC50 is above 6.70.

Turning to `CNc1cc(-c2cc(C)c(OC)cc2C)nc(N)n1` [Example 188, 6-(4-methoxy-2,5-dimethylphenyl)-4-N-methylpyrimidine-2,4-diamine], the pIC50 was above 6.70.

For the molecule `CNc1cc(-c2cc(C)c(C)cc2C)nc(N)n1` [Example 189, 4-N-methyl-6-(2,4,5-trimethylphenyl)pyrimidine-2,4-diamine], the pIC50 is above 6.70.

For `CNc1cc(-c2cc(Cl)ccc2C#N)nc(N)n1` [Example 190, 2-[2-amino-6-(methylamino)pyrimidin-4-yl]-4-chlorobenzonitrile], the pIC50 is above 6.70.

As to `CNc1cc(-c2cc(Cl)c(Cl)cc2C)nc(N)n1` [Example 191, 6-(4,5-dichloro-2-methylphenyl)-4-N-methylpyrimidine-2,4-diamine], the pIC50 was above 6.70.

Take `CNc1cc(-c2cc(C)c(F)cc2C)nc(N)n1` [Example 193, 6-(4-fluoro-2,5-dimethylphenyl)-4-N-methylpyrimidine-2,4-diamine]: the negative-log IC50 (pIC50) was above 6.70.

Consider `CNc1cc(-c2cc(C(F)(F)F)ccc2C)nc(N)n1` [Example 194, 4-N-methyl-6-[2-methyl-5-(trifluoromethyl)phenyl]pyrimidine-2,4-diamine], for which the pIC50 was above 6.70.

As for `CNc1cc(-c2cc(Cl)c(C(F)(F)F)cc2C)nc(N)n1` [Example 195, 6-[5-chloro-2-methyl-4-(trifluoromethyl)phenyl]-4-N-methylpyrimidine-2,4-diamine], the pIC50 was above 6.70.

For the molecule `CNc1cc(-c2cc(C(F)(F)F)ccc2C(F)(F)F)nc(N)n1` [Example 196, 6-[2,5-bis(trifluoromethyl)phenyl]-4-N-methylpyrimidine-2,4-diamine], the negative logarithm of the IC50 (pIC50) was above 6.70.

Regarding `CNc1cc(-c2cc(C)ccc2F)nc(N)n1` [Example 200, 6-(2-fluoro-5-methylphenyl)-4-N-methylpyrimidine-2,4-diamine], the negative logarithm of the IC50 (pIC50) was above 6.70.

With `CNc1cc(-c2cc(C)ccc2OC)nc(N)n1` [Example 204, 6-(2-methoxy-5-methylphenyl)-4-N-methylpyrimidine-2,4-diamine], the pIC50 is above 6.70.

`CNc1cc(-c2cc(F)ccc2Cl)nc(N)n1` [Example 205, 6-(2-chloro-5-fluorophenyl)-4-N-methylpyrimidine-2,4-diamine]: the pIC50 was above 6.70.

For `CNc1cc(-c2cc(C#N)ccc2F)nc(N)n1` [Example 206, 3-[2-amino-6-(methylamino)pyrimidin-4-yl]-4-fluorobenzonitrile], the pIC50 was above 6.70.

Turning to `CNc1cc(-c2cc(OC)ccc2Cl)nc(N)n1` [Example 207, 6-(2-chloro-5-methoxyphenyl)-4-N-methylpyrimidine-2,4-diamine], the pIC50 was above 6.70.

With `CNc1cc(-c2cc(Cl)c(C)cc2F)nc(N)n1` [Example 214, 6-(5-chloro-2-fluoro-4-methylphenyl)-4-N-methylpyrimidine-2,4-diamine], the pIC50 was above 6.70.

Take `Cc1cc(-c2cc(NC3CC3)nc(N)n2)c(C)cc1F` [Example 216, 4-N-cyclopropyl-6-(4-fluoro-2,5-dimethylphenyl)pyrimidine-2,4-diamine]: the pIC50 is above 6.70.

As for `COc1cc(C)c(-c2cc(NC3CC3)nc(N)n2)cc1C` [Example 217, 4-N-cyclopropyl-6-(4-methoxy-2,5-dimethylphenyl)pyrimidine-2,4-diamine], the pIC50 was above 6.70.

For `Cc1ccc(C)c(-c2cc(NC3CC3)nc(N)n2)c1` [Example 218, 4-N-cyclopropyl-6-(2,5-dimethylphenyl)pyrimidine-2,4-diamine], the pIC50 was above 6.70.

`CCNc1cc(-c2cc(Cl)ccc2C)nc(N)n1` [Example 221, 6-(5-chloro-2-methylphenyl)-4-N-ethylpyrimidine-2,4-diamine]: the pIC50 is above 6.70.
